Experimental data taken from US10829796B2, “Bacteria identification and antimicrobial susceptibility test” (priority 2015, dated 2020).

Tested on: bacteria in clinical bovine mastitis milk samples
Experiment: Combined bacteria identification and antimicrobial susceptibility test (colour of wells, MIC) on clinical bovine mastitis milk samples
Type: cell-based
Protocol: Clinical bovine mastitis milk samples were collected by a vet clinic in South Island, New Zealand. Samples were stored in the freezer for several months and shipped frozen to the testing facility. In this Example, the term “clinical” means that dairy cows had clinical symptoms of an udder infection e.g. cow behaved unusual, milk clots, swollen udder among other typical symptoms. Testing was executed in microwell plate comprising of 24 wells (3×8 wells).
In addition, 20 ul of clinical mastitis sample was added to each well with a laboratory pipette.
(§1) Abbreviations • 1. 80 ul GC+10 ul Tell: 80 ul Giolitti Cantoni base broth+10 ul Tellurite solution (1%); • 2. 80 ul TSB/Esc/Fer Cit: 80 ul Tryptic soy broth containing 0.25% Esculin and 0.125% Ammonium Ferric Citrate; • 3. 80 ul TSB/Esc/Fer Cit+10 ul Genta: 80 ul Tryptic soy broth containing 0.25% Esculin and 0.125% Ammonium Ferric Citrate+10 ul of Gentamycin solution 10 mg/ml; • 4. 80 ul McC/PR25: 80 ul MacConkey broth (single strength) containing 0.0125% phenol red; and • 5. 80 ul TSB/PR25: 80 ul Tryptic soy broth containing 0.0125% phenol red. Bacteria Identification
Columns A to C and rows 1 and 2 were used for bacteria identification. A1: coagulase positive Staph; A2: Staphylococci; B1: Strep group D; B2: Strep group D; C1: general enrichment media (gram+ and gram-bacteria); C2: coliform bacteria.
Column A3 to A8: serial dilution of benzyl penicillin as potassium. Column B3 to B8: serial dilution of ceftiofur as hydrochloride. Column C3 to C8: serial dilution of cloxacillin as sodium. Antibiotic concentrations are listed as free form ranging between 4 ug/ml to 0.05 ug/ml.
Minimum inhibitory substance concentration (MIC) is here defined as the concentration if a colour change occurs between two wells (one well remains red with drug concentration 1, the other one yellow with drug concentration 2, whereas drug concentration 1 is larger than drug concentration 2) then the MIC is the value of drug concentration 1.
Table 21 indicates the microwell plate configuration #1; Drugs: Benzylpenicillin as potassium; Cloxacillin as sodium; Ceftiofur as hydrochloride; Drug concentration in each well (A3 to C8) is based on 80 μl composition+10 μl drug solution+20 μl clinical mastitis milk sample and equivalent to listed drug concentration in μg/ml; 20 ul of clinical bovine mastitis milk sample was added to each well (A1 to C8).
In addition, each well received one drop of clinical sample from a transfer pipette which was on average about 35 mg. This was determined through weighing the well plate prior and after the addition of clinical mastitis samples. This weight was then divided by 24.
as §1, with “•” for “Abbreviations •”, “red.” for “red. Bacteria Identification”
Columns A to C and rows 1 and 2 were used for bacteria identification. A1: coagulase positive Staph; A2: Staphylococci; B1: Strep Group D; B2: -; C1: general enrichment media (gram+ and gram-); C2: coliform bacteria.
Column A3 to A8: serial dilution of benzyl penicillin as potassium. Drug concentrations given as free form ranging between 4 ug/ml to 0.05 ug/ml. Column B3 to B8: serial dilution of ceftiofur as hydrochloride. Drug concentrations given as free form ranging between 4 ug/ml to 0.05 ug/ml. Column C3 to C8: serial dilution of cloxacillin as sodium. Drug concentrations given as free form ranging between 4 ug/ml to 0.05 ug/ml.

CC1(C)S[C@@H]2[C@H](NC(=O)Cc3ccccc3)C(=O)N2[C@H]1C(=O)O [benzyl penicillin]
yellow: Colour of media in each well (ID 6, T = 23h, 37° C., plate configuration #2, drug 0.05 μg/ml (Table 31)) | Colour of media in each well (ID 6, T = 23h, 37° C., plate configuration #2, drug 0.1 μg/ml (Table 31)) | Colour of media in each well (ID 6, T = 23h, 37° C., plate configuration #2, drug 0.5 μg/ml (Table 31)) | Colour of media in each well (ID 6, T = 23h, 37° C., plate configuration #2, drug 1 μg/ml (Table 31)) | Colour of media in each well (ID 6, T = 23h, 37° C., plate configuration #2, drug 2 μg/ml (Table 31)) | Colour of media in each well (ID 6, T = 23h, 37° C., plate configuration #2, drug 4 μg/ml (Table 31)) | Colour of media in each well (ID 6, T~7 h, 37° C., plate configuration #2, Table 35, drug 0.05 μg/ml) | Colour of media in each well (ID 6, T~7 h, 37° C., plate configuration #2, Table 35, drug 0.1 μg/ml) | Colour of media in each well (ID 6, T~7 h, 37° C., plate configuration #2, Table 35, drug 0.5 μg/ml) | Colour of media in each well (ID 6, T~7 h, 37° C., plate configuration #2, Table 35, drug 1 μg/ml) | Colour of media in each well (ID 6, T~7 h, 37° C., plate configuration #2, Table 35, drug 2 μg/ml) | Colour of media in each well (ID 6, T~7 h, 37° C., plate configuration #2, Table 35, drug 4 μg/ml) | Colour of media in each well (ID 6, T~11 h, 37° C., plate configuration #2, Table 35, drug 0.05 μg/ml) | Colour of media in each well (ID 6, T~11 h, 37° C., plate configuration #2, Table 35, drug 0.1 μg/ml) | Colour of media in each well (ID 6, T~11 h, 37° C., plate configuration #2, Table 35, drug 0.5 μg/ml) | Colour of media in each well (ID 6, T~11 h, 37° C., plate configuration #2, Table 35, drug 1 μg/ml) | Colour of media in each well (ID 6, T~11 h, 37° C., plate configuration #2, Table 35, drug 2 μg/ml) | Colour of media in each well (ID 6, T~11 h, 37° C., plate configuration #2, Table 35, drug 4 μg/ml) | Colour of media in each well (ID 6, T~23 h, 37° C., plate configuration #2, Table 35, drug 0.05 μg/ml) | Colour of media in each well (ID 6, T~23 h, 37° C., plate configuration #2, Table 35, drug 0.1 μg/ml) | Colour of media in each well (ID 6, T~23 h, 37° C., plate configuration #2, Table 35, drug 0.5 μg/ml) | Colour of media in each well (ID 6, T~23 h, 37° C., plate configuration #2, Table 35, drug 1 μg/ml) | Colour of media in each well (ID 6, T~23 h, 37° C., plate configuration #2, Table 35, drug 2 μg/ml) | Colour of media in each well (ID 6, T~23 h, 37° C., plate configuration #2, Table 35, drug 4 μg/ml) | Colour of media in each well (ID 7, T = 23h, 37° C., plate configuration #2, drug 0.05 μg/ml) | Colour of media in each well (ID 7, T = 23h, 37° C., plate configuration #2, drug 0.1 μg/ml) | Colour of media in each well (Table 24, sample ID 2, 22 hours at 37° C., plate configuration #1, row 6 of serial dilution 4 ug/ml to 0.05 ug/ml) | Colour of media in each well (Table 24, sample ID 2, 22 hours at 37° C., plate configuration #1, row 7 of serial dilution 4 ug/ml to 0.05 ug/ml) | Colour of media in each well (Table 24, sample ID 2, 22 hours at 37° C., plate configuration #1, row 8 of serial dilution 4 ug/ml to 0.05 ug/ml)
orange: Colour of media in each well (Table 24, sample ID 2, 22 hours at 37° C., plate configuration #1, row 3 of serial dilution 4 ug/ml to 0.05 ug/ml) | Colour of media in each well (Table 24, sample ID 2, 22 hours at 37° C., plate configuration #1, row 4 of serial dilution 4 ug/ml to 0.05 ug/ml) | Colour of media in each well (Table 24, sample ID 2, 22 hours at 37° C., plate configuration #1, row 5 of serial dilution 4 ug/ml to 0.05 ug/ml)
0.5 µg/mL: MIC (clinical sample ID 7 (coagulase positive Staph), 37° C. for 23 hours, plate configuration #2)
0.1 µg/mL: MIC (clinical sample ID 1 (streptococci group D), 37° C. for 22 hours, plate configuration #1)
red: Colour of media in each well (ID 5 to 8, T = 0 h (prior incubation, reference), plate configuration #2, drug 1 μg/ml) | Colour of media in each well (ID 5 to 8, T = 0 h (prior incubation, reference), plate configuration #2, drug 2 μg/ml) | Colour of media in each well (ID 5 to 8, T = 0 h (prior incubation, reference), plate configuration #2, drug 4 μg/ml) | Colour of media in each well (ID 7, T = 23h, 37° C., plate configuration #2, drug 0.5 μg/ml) | Colour of media in each well (ID 7, T = 23h, 37° C., plate configuration #2, drug 1 μg/ml) | Colour of media in each well (ID 7, T = 23h, 37° C., plate configuration #2, drug 2 μg/ml) | Colour of media in each well (ID 7, T = 23h, 37° C., plate configuration #2, drug 4 μg/ml) | Colour of media in each well (ID 8, T = 23 h, 37° C., plate configuration #2, drug 0.05 μg/ml) | Colour of media in each well (ID 8, T = 23 h, 37° C., plate configuration #2, drug 0.1 μg/ml) | Colour of media in each well (ID 8, T = 23 h, 37° C., plate configuration #2, drug 0.5 μg/ml) | Colour of media in each well (ID 8, T = 23 h, 37° C., plate configuration #2, drug 1 μg/ml) | Colour of media in each well (ID 8, T = 23 h, 37° C., plate configuration #2, drug 2 μg/ml) | Colour of media in each well (ID 8, T = 23 h, 37° C., plate configuration #2, drug 4 μg/ml)
< 0.05 µg/mL: MIC (clinical sample ID 5 (streptococci group D), 37° C. for 23 hours, plate configuration #2) | MIC (clinical sample ID 8 (coagulase negative Staph and Streptococci group D), 37° C. for 23 hours, plate configuration #2)
> 4 µg/mL: MIC (clinical sample ID 2 (streptococci group D, also coagulase positive Staph), 37° C. for 22 hours, plate configuration #1) | MIC (clinical sample ID 4 (coagulase positive Staph), 37° C. for 22 hours, plate configuration #1)
